Calls of active or inactive are those of the source.
Columns and labels:
[1] = target: Lysine-specific demethylase 4A (Homo sapiens, UniProt O75164); test: inhibition of JMJD2A H3K9me3 demethylation – biochemical, DELFIA europium, cherry-picked samples, selectivity assay for GASC-1 inhibitor project, dose response (AID 488840)
[2] = target: Cytochrome P450 2C19 (Homo sapiens, UniProt P33261); test: Cytochrome panel assay with activity outcomes. Panel member name: p450-cyp2c19 Compounds with AC50 equal or less than 10 uM are considered active; type: functional; conditions: read-out: AC50
Cytochrome P450 2C19, sequence (P33261 whole entry): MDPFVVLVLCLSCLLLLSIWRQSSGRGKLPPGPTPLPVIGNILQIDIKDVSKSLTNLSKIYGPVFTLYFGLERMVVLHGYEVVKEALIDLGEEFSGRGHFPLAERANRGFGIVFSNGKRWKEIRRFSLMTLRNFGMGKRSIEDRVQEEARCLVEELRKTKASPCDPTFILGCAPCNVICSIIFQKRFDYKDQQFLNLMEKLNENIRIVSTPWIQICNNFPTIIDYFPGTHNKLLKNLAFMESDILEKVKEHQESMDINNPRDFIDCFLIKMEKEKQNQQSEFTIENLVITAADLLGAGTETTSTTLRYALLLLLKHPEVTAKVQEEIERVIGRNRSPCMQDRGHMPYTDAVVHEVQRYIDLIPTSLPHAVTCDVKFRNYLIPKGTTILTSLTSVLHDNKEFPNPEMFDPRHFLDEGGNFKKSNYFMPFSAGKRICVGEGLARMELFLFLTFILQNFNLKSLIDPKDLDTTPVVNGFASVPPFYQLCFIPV

[3] = target: T1, Heat shock factor protein 1 (Mus musculus, UniProt P38532); test: decrease of HSF1-responsive luciferase luminescence – cell-based, NIH3T3, dose retest, confirmation (AID 2382); type: functional;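 note: NIH3T3 fibroblasts with HSF1-driven luciferase reporter stressed by proteasome inhibitor MG132; luminescence from HSF1-driven luciferase expression after 8 hours of MG132 stress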
T1 sequence (P38532 whole entry): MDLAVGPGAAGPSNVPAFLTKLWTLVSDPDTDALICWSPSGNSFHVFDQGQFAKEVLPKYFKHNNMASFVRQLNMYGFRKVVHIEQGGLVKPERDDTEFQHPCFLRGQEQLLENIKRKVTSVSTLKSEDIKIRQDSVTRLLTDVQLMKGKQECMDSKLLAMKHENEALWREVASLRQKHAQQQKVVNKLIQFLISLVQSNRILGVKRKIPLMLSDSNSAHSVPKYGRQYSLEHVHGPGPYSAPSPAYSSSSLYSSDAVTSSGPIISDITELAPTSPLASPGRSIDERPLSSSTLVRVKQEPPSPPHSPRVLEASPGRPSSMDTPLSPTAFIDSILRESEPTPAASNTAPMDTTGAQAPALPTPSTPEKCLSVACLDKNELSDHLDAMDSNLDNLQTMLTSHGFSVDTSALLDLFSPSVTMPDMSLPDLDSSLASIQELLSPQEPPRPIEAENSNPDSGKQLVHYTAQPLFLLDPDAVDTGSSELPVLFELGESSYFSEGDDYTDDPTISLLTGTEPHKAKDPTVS

[4] = target: Cytochrome P450 2D6 (Homo sapiens, UniProt P10635);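 note: CYP2D6 member of a cytochrome P450 panel assay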
Cytochrome P450 2D6, sequence (P10635 whole entry): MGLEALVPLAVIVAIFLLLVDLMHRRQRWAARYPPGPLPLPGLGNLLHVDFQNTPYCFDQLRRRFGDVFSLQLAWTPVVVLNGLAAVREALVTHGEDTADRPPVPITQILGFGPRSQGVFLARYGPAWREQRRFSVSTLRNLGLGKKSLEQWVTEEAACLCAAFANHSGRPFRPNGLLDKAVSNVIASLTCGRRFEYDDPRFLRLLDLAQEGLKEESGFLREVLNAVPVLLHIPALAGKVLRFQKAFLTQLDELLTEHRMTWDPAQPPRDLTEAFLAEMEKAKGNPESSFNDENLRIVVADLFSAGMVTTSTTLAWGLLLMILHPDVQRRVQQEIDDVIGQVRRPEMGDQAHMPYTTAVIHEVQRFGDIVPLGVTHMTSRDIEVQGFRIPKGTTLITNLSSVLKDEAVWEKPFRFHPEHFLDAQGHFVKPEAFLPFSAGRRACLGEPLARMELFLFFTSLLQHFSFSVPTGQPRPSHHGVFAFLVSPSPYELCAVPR

[5] = target: Cytochrome P450 3A4 (Homo sapiens, UniProt P08684);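 note: CYP3A4 tested as one member of a cytochrome P450 panel screen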
Cytochrome P450 3A4, sequence (P08684 whole entry): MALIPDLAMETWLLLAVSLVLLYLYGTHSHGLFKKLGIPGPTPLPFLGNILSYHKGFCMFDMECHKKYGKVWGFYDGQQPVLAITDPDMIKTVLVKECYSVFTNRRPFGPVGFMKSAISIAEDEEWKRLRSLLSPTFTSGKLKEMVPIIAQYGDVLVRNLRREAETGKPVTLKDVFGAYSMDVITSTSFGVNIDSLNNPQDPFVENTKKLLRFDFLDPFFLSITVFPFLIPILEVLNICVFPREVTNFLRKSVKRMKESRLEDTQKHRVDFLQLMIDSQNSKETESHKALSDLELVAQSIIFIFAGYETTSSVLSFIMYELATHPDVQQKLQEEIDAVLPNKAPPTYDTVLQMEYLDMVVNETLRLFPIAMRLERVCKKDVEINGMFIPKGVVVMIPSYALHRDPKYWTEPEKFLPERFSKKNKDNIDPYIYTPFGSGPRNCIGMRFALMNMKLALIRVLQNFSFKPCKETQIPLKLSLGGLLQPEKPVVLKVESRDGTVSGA

[6] = target: T2, Apoptotic protease-activating factor 1 (Homo sapiens, UniProt O14727); type: functional
T2 sequence (O14727 whole entry): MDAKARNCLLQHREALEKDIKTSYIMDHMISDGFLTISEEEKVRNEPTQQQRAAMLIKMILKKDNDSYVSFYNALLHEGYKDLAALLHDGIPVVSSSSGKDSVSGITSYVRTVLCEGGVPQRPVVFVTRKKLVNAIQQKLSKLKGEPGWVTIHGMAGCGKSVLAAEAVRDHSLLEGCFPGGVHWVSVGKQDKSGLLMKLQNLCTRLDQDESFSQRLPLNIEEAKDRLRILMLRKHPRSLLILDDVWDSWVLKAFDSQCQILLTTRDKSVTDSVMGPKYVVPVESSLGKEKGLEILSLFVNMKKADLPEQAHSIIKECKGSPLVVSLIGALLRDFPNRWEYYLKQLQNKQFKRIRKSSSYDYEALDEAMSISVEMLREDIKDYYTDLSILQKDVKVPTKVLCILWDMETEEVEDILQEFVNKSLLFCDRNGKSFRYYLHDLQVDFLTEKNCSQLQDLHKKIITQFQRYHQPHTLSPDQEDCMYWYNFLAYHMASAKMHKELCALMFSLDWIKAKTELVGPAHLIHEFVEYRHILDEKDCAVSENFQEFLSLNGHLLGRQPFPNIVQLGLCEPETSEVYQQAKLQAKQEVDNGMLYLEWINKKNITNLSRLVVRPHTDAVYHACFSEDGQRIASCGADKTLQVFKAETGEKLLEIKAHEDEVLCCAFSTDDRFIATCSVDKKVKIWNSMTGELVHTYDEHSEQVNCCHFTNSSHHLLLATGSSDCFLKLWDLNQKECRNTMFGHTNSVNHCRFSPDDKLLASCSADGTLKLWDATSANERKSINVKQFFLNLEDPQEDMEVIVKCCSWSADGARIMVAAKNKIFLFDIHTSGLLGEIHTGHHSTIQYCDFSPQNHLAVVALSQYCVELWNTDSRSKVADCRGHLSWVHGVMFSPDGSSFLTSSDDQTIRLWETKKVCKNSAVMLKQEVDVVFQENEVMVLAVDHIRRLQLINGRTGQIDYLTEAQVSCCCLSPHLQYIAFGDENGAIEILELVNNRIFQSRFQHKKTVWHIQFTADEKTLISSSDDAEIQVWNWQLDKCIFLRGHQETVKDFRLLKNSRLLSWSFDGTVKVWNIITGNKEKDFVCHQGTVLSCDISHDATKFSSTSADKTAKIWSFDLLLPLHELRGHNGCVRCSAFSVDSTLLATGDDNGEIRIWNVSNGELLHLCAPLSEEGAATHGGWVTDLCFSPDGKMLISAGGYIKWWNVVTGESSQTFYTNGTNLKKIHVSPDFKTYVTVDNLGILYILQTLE

[7] = target: T3, Insulin-degrading enzyme (Homo sapiens, UniProt P14735); test: cellular IDE activation of Abeta substrate cleavage – fluorescence polarization, HEK cells, dose response (AID 588439); type: functional, cell-based
T3 sequence (P14735 whole entry): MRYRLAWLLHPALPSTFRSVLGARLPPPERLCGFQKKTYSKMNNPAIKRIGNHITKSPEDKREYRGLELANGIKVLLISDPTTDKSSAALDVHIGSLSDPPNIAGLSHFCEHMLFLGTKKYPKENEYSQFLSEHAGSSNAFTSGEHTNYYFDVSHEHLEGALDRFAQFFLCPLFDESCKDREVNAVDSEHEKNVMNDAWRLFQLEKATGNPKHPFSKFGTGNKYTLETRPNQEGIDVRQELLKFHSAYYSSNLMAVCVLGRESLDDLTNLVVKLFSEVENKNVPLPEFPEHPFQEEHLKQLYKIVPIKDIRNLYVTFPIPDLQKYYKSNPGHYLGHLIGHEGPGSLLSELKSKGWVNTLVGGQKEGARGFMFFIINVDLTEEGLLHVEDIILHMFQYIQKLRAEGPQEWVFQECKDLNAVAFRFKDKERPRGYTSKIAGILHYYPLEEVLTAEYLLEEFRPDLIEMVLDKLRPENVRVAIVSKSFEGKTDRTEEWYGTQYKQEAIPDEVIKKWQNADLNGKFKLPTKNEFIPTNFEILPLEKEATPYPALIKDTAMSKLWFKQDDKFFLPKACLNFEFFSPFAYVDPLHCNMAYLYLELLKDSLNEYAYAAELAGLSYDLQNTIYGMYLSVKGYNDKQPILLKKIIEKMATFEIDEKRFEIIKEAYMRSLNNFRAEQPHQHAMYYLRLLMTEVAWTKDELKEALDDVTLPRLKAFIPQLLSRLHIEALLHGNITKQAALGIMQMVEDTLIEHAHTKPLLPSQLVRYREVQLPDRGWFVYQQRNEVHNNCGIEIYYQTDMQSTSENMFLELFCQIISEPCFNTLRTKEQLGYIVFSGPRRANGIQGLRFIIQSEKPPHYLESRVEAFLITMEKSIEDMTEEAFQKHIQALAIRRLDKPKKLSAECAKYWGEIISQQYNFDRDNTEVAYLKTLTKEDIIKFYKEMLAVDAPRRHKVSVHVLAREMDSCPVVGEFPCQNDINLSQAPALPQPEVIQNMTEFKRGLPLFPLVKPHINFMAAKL

[8] = system: HEK293; test: optical interference in Abeta FP readout, dose response, artefact control for IDE activator project, biochemical, fluorescence polarization (AID 588442); type: functional, cell-based; conditions: Homo sapiens
[9] = target: UDP-galactopyranose mutase (Mycobacterium tuberculosis, UniProt P9WIQ1); test: Inhibitors of Mycobacterium tuberculosis UDP-galactopyranose mutase (UGM) enzyme Measured in Biochemical System Using Plate Reader - 2105-02_Inhibitor_Dose_CherryPick_Activity. [Related pubchem assays (depositor defined):AID504439]
[10] = system: HEK293; test: membrane integrity loss in HEK cells – cell-based, fluorescence, cytotoxicity control for IDE activator project, dose response (AID 588440); type: functional; conditions: Homo sapiens;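 note: cytotoxicity by LDH release measuring loss of membrane integrity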
[11] = target: ORF 73 (Human herpesvirus 8, UniProt O40947); test: KSHV LANA DNA-binding disruption – biochemical, fluorescence polarization, cherry-picked samples, dose response (AID 504725); design: species or system Human gammaherpesvirus 8;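 note: fluorescence polarization of a labeled DNA duplex reporting LANA DNA binding; potency is for inhibitors that block LANA binding to the DNA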
ORF 73, sequence (O40947 whole entry): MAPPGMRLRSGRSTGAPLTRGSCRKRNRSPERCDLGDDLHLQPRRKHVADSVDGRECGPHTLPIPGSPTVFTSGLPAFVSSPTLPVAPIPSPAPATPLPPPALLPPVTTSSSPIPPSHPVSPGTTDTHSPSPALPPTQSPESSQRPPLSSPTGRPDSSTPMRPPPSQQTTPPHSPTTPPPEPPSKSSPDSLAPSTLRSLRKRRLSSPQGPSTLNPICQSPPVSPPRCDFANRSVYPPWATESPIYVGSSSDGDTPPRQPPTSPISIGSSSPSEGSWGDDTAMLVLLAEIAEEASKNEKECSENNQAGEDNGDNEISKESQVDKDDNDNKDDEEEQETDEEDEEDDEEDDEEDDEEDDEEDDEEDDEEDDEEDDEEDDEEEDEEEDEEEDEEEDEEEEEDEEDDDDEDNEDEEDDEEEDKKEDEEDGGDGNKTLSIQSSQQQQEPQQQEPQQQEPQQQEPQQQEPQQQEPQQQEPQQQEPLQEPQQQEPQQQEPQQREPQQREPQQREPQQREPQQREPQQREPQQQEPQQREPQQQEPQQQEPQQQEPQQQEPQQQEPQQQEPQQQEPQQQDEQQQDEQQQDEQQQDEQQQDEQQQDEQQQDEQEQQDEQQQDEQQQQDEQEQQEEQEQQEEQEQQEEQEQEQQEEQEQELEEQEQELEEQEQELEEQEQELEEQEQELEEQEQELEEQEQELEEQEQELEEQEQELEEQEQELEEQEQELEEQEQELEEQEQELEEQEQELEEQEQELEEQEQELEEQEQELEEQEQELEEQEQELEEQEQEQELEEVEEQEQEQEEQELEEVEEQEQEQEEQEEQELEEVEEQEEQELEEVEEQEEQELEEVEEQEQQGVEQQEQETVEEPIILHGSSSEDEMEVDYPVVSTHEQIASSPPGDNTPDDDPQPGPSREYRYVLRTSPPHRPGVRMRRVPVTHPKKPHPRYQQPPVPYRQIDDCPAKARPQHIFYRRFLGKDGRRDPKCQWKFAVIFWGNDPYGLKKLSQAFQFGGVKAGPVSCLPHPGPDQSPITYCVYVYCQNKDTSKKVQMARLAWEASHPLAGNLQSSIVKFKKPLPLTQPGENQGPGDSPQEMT

[12] = target: T3, Insulin-degrading enzyme; test: recombinant IDE activation, cell-free – biochemical, fluorescence polarization, counter-screen for IDE activator project, dose response (AID 588681)
[13] = target: T4, Intestinal-type alkaline phosphatase (Homo sapiens, UniProt P09923); test: inhibition of human intestinal alkaline phosphatase – biochemical, dose response (AID 488876); type: functional
T4 sequence (P09923 whole entry): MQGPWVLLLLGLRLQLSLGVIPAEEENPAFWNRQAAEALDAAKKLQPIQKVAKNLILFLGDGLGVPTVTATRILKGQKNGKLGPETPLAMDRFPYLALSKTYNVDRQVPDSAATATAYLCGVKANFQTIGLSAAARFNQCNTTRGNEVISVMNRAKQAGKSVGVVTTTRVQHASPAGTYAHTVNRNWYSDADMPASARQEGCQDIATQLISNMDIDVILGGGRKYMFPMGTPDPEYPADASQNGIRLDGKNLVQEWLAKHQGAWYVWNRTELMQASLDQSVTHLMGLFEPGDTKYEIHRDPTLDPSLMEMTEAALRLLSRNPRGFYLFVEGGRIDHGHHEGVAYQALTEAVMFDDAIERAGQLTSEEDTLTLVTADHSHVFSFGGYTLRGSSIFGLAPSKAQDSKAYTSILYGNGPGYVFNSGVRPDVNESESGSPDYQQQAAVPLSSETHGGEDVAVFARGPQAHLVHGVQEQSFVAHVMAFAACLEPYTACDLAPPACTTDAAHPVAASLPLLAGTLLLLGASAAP

[14] = target: T5, Intestinal-type alkaline phosphatase (Mus musculus, UniProt P24822); test: PubChem AID 488785; type: functional
T5 sequence (P24822 whole entry): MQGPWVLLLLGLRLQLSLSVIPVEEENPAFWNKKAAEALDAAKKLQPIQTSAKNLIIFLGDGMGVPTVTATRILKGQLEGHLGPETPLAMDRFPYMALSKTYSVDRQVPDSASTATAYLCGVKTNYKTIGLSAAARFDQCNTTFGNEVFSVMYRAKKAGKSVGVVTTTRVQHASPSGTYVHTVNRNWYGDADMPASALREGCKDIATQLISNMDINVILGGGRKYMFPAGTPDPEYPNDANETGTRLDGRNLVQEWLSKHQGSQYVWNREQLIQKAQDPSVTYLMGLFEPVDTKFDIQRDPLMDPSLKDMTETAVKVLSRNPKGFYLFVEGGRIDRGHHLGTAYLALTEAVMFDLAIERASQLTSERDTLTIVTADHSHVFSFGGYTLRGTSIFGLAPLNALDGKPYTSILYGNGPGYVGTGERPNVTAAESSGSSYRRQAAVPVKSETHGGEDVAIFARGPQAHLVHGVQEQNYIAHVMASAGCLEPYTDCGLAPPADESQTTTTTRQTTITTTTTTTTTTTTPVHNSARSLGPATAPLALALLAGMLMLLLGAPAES

[15] = target: T6, Alkaline phosphatase, tissue-nonspecific isozyme (Homo sapiens, UniProt P05186); test: TNAP enzyme inhibition by screening hits, dose response, selectivity assay for mouse IAP inhibitor project, biochemical, human TNAP, uHTS hits (AID 488906); type: functional
T6 sequence (P05186 whole entry): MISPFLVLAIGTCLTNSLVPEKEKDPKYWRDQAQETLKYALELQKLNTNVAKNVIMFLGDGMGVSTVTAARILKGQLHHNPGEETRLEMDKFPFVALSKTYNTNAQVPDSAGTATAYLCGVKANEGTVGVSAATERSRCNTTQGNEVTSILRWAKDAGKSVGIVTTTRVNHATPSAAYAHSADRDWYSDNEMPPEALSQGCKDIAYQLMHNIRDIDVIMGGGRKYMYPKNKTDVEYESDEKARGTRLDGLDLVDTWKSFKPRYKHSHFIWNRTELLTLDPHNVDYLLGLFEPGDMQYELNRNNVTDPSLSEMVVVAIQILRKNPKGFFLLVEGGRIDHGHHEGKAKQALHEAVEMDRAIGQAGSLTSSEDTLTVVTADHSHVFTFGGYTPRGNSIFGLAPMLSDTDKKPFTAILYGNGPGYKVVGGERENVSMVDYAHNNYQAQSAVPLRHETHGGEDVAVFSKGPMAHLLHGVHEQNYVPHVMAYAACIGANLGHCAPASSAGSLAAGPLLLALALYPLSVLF

[16] = target: T6, Alkaline phosphatase, tissue-nonspecific isozyme; test: inhibition of tissue-nonspecific alkaline phosphatase – biochemical, dose response (AID 488882); type: functional
[17] = HGIII-sPLA2 enzyme inhibition potency – biochemical, QFRET, IC50, dose response (AID 743457);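 note: green fluorescence rise as the enzyme cleaves BODIPY PC-A2 in liposomes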
[18] = target: T4, Intestinal-type alkaline phosphatase; test: Dose Response confirmation of uHTS hits from a small molecule inhibitors of human intestinal alkaline phosphatase via a luminescent assay. [Related pubchem assays (depositor defined):AID2544, AID2574]; type: functional
[19] = target: T5, Intestinal-type alkaline phosphatase; test: PubChem AID 488874; type: functional
[20] = target: T4, Intestinal-type alkaline phosphatase; test: inhibition of human intestinal alkaline phosphatase – biochemical, luminescent, uHTS hits, set 2, dose response (AID 488793); type: functional
[21] = target: Voltage-dependent T-type calcium channel subunit alpha-1H (Homo sapiens, UniProt O95180); test: inhibition of CACNA1H calcium flux – cell-based, SynthLib3 library, HEK293 Cav3.2, fluorescence (AID 493041); type: functional
[22] = system: Candida albicans; test: antifungal activity against resistant Candida strain – CaCi-8, fluconazole, Alamar Blue, dry powder, dose response (AID 488807); type: functional, organism-based
[23] = target: T4, Intestinal-type alkaline phosphatase; test: activation of human intestinal alkaline phosphatase – biochemical, luminescent, uHTS hits, set 2, dose response (AID 488817); type: functional;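 note: potency of activators that raise enzyme activity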
[24] = cells; type: functional, cell-based
[25] = target: T5, Intestinal-type alkaline phosphatase; test: PubChem AID 488875; type: functional
[26] = target: T7, Nuclear receptor subfamily 0 group B member 1 (Homo sapiens, UniProt P51843); type: functional, cell-based;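 note: HEK293T cells transfected with SF-1 and DAX-1 plus StAR promoter luciferase reporter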
T7 sequence (P51843 whole entry): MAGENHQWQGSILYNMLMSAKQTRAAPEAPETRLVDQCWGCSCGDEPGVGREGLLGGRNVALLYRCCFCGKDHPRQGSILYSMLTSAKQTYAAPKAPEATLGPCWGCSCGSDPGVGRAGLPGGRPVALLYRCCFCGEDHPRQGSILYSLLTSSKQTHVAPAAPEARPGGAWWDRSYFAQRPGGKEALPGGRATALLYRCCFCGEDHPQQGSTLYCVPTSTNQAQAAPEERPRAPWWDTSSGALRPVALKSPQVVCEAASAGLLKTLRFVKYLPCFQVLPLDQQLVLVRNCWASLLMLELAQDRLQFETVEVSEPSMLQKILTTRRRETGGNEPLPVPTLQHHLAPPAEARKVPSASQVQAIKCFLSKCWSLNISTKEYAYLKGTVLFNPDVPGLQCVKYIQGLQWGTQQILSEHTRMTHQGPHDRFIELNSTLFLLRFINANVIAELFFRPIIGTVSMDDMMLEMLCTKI

[27] = target: T4, Intestinal-type alkaline phosphatase; test: human intestinal alkaline phosphatase activators, dose response, biochemical, luminescence, uHTS hits (AID 463120); type: functional
[28] = target: T6, Alkaline phosphatase, tissue-nonspecific isozyme; test: activation of tissue-nonspecific alkaline phosphatase – biochemical, TNAP isozyme, human IAP uHTS hits, selectivity assay for human IAP activator project, dose response (AID 488886); type: functional;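 note: potency of compounds raising TNAP activity as a selectivity check on IAP activators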

Lysine-specific demethylase 4A, sequence (O75164 whole entry): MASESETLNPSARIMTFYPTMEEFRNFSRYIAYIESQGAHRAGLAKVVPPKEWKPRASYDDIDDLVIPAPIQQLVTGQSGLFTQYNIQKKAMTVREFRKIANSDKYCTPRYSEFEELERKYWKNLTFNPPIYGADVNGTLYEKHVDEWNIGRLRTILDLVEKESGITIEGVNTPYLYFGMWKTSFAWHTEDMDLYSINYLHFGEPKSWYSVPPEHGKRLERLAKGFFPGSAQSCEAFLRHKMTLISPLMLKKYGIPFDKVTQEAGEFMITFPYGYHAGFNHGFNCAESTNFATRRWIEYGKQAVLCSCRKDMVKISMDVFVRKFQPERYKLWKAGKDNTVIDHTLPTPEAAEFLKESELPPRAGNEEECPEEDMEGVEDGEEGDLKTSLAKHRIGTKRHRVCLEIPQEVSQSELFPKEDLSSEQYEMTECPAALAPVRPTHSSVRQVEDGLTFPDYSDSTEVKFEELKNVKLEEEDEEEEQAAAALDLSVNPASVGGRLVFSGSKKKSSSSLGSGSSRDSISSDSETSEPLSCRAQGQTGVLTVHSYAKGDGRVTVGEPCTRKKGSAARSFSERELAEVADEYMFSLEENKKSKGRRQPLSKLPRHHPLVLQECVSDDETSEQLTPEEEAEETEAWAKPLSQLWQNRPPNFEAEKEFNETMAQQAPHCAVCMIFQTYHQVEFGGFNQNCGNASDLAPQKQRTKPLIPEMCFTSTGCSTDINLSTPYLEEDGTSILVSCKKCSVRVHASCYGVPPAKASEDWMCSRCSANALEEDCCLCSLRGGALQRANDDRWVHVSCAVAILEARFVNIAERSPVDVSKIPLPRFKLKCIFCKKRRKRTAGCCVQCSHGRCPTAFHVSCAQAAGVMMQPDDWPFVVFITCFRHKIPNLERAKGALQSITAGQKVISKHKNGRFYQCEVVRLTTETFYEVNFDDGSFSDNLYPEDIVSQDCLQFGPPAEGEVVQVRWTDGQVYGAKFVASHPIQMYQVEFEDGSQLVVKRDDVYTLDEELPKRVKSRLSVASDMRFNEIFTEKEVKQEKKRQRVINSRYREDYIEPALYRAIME

Cc1cc(C(=O)Nc2sc3c(c2C#N)CCC(C)C3)no1 (stereo not drawn)
AC50 [1]: > 60 µM (inactive)

CCOC(=O)Cc1csc(NC(=O)c2sc3nc4ccc(CC)cc4cc3c2N)n1
AC50 [2]: 200 nM (inconclusive) | EC50 [3]: > 195 µM (not active) | AC50 [4]: inconclusive | AC50 [5]: 35.5 µM (inconclusive)

CCOc1ccc2noc3c2c1C(=O)c1ccccc1-3
IC50 [6]: 87.4 µM (active) | EC50 [7]: > 54.7 µM (inactive) | EC50 [8]: 4.95 µM (active) | AC50 [9]: 356 nM (active) | IC50 [10]: > 89.1 µM (inactive) | AC50 [11]: 572 nM (active) | EC50 [12]: > 54.7 µM (inactive)

COc1ccc(CN2C3CCCC2CC(NC(=O)Nc2cccc(C)c2)C3)cc1 (stereo not drawn)
IC50 [13]: 22.7 µM (active) | IC50 [14]: 11 µM (active) | IC50 [15]: 32.2 µM (active)

CCN(CC)c1ccc(N=Nc2nn(C)c(C)c2[N+](=O)[O-])cc1
IC50 [16]: 47.1 µM (active) | IC50 [17]: > 122 µM (inactive) | IC50 [18]: 13 µM (inactive) | IC50 [19]: 35.3 µM (active) | IC50 [20]: 52.5 µM (active)

CCC(C)CN1CC2CCC(NC(=O)c3cc(Cl)cc(Cl)c3)C2C1 (stereo not drawn)
EC50 [21]: 9.4 µM (active)

O=C(O)c1c2ccccc2nn1Cc1ccc(Cl)cc1
AC50 [22]: 149 µM (active)

CCc1ccc(/C=N/Nc2[nH]cnc3ncnc2-3)cc1
EC50 [23]: 12.5 µM (active) | IC50 [24]: > 67.5 µM (inactive) | EC50 [25]: > 100 µM (inactive) | IC50 [26]: 2.09 µM (active) | EC50 [27]: 6.62 µM (active) | EC50 [28]: 17.7 µM (active)

Reference: ChEMBL document CHEMBL1201862, “PubChem BioAssay data set” (2004)
